The subject of this data set is Pseudomonas aeruginosa PAO1 MB9798 (efflux+, IMP-1). Particulars: imipenem at 2 μg/mL. The procedure, abridged:
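Isogenic PAO1 pair (efflux+ MB9798, efflux− MB9799, both IMP-1) tested by microbroth MIC with fixed imipenem and/or ceftazidime, usually at CLSI breakpoint, plus fixed class A/C inhibitor against AmpC. MBL inhibitor titrated; concentration restoring susceptibility recorded and fold difference between strains taken as efflux extent.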

[1] abbreviates: ratio MITC95 PA 9798/MITC95 PA 9799.

Counter-ions that a name gives are not always drawn. Like-named read-outs stand apart in the source and are kept apart here.

Take `NS(=O)(=O)c1c(S(=O)(=O)N[C@H]2CCNC2)ccc(-c2cccc3[nH]cnc23)c1-c1nn[nH]n1` [Example 197, 4-(1H-benzo[d]imidazol-4-yl)-N^1—((S)-pyrrolidin-3-yl)-3-(2H-tetrazol-5-yl)benzene-1,2-disulfonamide]: the Efflux ratio under setting [1] turned out to be 1.00.
With `N[C@H](CO)CNS(=O)(=O)c1ccc(-c2cccc3[nH]cnc23)c(-c2nn[nH]n2)c1S(N)(=O)=O` [Example 296, (S)—N^1-(2-amino-3-hydroxypropyl)-4-(1H-benzo[d]imidazol-4-yl)-3-(2H-tetrazol-5-yl)benzene-1,2-disulfonamide], under setting [1], the Efflux ratio is 1.00.
Take `CC(CN)NS(=O)(=O)c1ccc(-c2cccc3sc(N)nc23)c(-c2nnn[nH]2)c1S(N)(=O)=O.O=CO` (stereo not shown) [Example 116, 2-(4-(2-aminobenzo[d]thiazol-4-yl)-2-sulfamoyl-3-(1H-tetrazol-5-yl)phenylsulfonamido) propan-1-aminium formate]: under setting [1], the Efflux ratio is 0.50.
Same read-out and setting: with `CN1CCC(NS(=O)(=O)c2ccc(-c3cccc4sc(N)nc34)c(-c3nnn[nH]3)c2S(N)(=O)=O)C1` (stereo not shown) [Example 53, 4-(2-amino-1,3-benzothiazol-4-yl)-N1-(1-methylpyrrolidin-3-yl)-3-(1H-tetrazol-5-yl)benzene-1,2-disulfonamide] the figure was 1.00.
`Nc1ccc(-c2ccc(S(=O)(=O)N[C@H]3CCNC3)c(S(N)(=O)=O)c2-c2nn[nH]n2)cn1` [Example 195, (S)-4-(6-aminopyridin-3-yl)-N^1-(pyrrolidin-3-yl)-3-(2H-tetrazol-5-yl)benzene-1,2-disulfonamide]: under setting [1], the Efflux ratio turned out to be 1.00.
Still for that read-out and setting: the figure for `CN1CC[C@H](CNS(=O)(=O)c2ccc(-c3cccc4sc(N)nc34)c(-c3nnn[nH]3)c2S(N)(=O)=O)C1` [Example 77, 4-(2-amino-1,3-benzothiazol-4-yl)-N1-{[(3S)-1-methylpyrrolidin-3-yl]methyl}-3-(1H-tetrazol-5-yl)benzene-1,2-disulfonamide] is 0.50.
As to `NS(=O)(=O)c1c(S(=O)(=O)N[C@@H]2CCNC2)ccc(-c2cnc3ccccn23)c1-c1nnn[nH]1` [Example 140, (R)-4-(imidazo[1,2-a]pyridin-3-yl)-N1-(pyrrolidin-3-yl)-3-(1H-tetrazol-5-yl)benzene-1,2-disulfonamide], under setting [1], the Efflux ratio came out at 2.00.
On the same count and under the same terms, with `Nc1nc2c(-c3ccc(S(=O)(=O)N4CCC(N)CC4)c(S(N)(=O)=O)c3-c3nn[nH]n3)cccc2s1` [Example 148, 3-(2-aminobenzo[d]thiazol-4-yl)-6-((4-aminopiperidin-1-yl)sulfonyl)-2-(2H-tetrazol-5-yl)benzenesulfonamide] the figure was 2.00.
Regarding `C[N+](C)(C)CCNS(=O)(=O)c1ccc(-c2cccc3sc(N)nc23)c(-c2nnn[nH]2)c1S(N)(=O)=O` [Example 391, 2-({[4-(2-amino-1,3-benzothiazol-4-yl)-2-sulfamoyl-3-(1H-tetrazol-5-yl)phenyl]sulfonyl}amino)-N,N,N-trimethylethanaminium trifluoroacetate], the Efflux ratio (fold difference between efflux + (MB9798) and efflux − (MB9799) strains) was 1.00.
Turning to `Nc1nc2c(-c3ccc(S(=O)(=O)N4CCC(N)(CO)C4)c(S(N)(=O)=O)c3-c3nnn[nH]3)cccc2s1` (stereo not shown) [Example 55, 3-(2-amino-1,3-benzothiazol-4-yl)-6-{[3-amino-3-(hydroxymethyl)pyrrolidin-1-yl]sulfonyl}-2-(1H-tetrazol-5-yl)benzenesulfonamide], the Efflux ratio under setting [1] is given as 1.00.
Consider `NS(=O)(=O)c1c(S(=O)(=O)N[C@@H]2CCNC2)ccc(-c2cccc3cn[nH]c23)c1-c1nnn[nH]1` [Example 139, (R)-4-(1H-indazol-7-yl)-N1-(pyrrolidin-3-yl)-3-(1H-tetrazol-5-yl)benzene-1,2-disulfonamide], for which, under setting [1], the Efflux ratio is 1.00.
In the case of `NC[C@H](O)CNS(=O)(=O)c1ccc(-c2ccncc2N)c(-c2nn[nH]n2)c1S(N)(=O)=O` [Example 222, (S)—N1-(3-amino-2-hydroxypropyl)-4-(3-aminopyridin-4-yl)-3-(2H-tetrazol-5-yl)benzene-1,2-disulfonamide], the Efflux ratio under setting [1] is listed as 1.00.
On the same count and under the same terms, with `NCCNC(=O)c1cccc(-c2ccc(S(=O)(=O)NCCN)c(S(N)(=O)=O)c2-c2nn[nH]n2)c1N` [Example 204, 2-amino-N-(2-aminoethyl)-4′-(N-(2-aminoethyl)sulfamoyl)-5′-sulfamoyl-6′-(2H-tetrazol-5-yl)biphenyl-3-carboxamide] the figure was 1.00; with `Cn1c(N)nc2c(-c3ccc(S(=O)(=O)NCCCN)c(S(N)(=O)=O)c3-c3nn[nH]n3)cccc21` [Example 183, 4-(2-amino-1-methyl-1H-benzo[d]imidazol-4-yl)-N^1-(3-aminopropyl)-3-(2H-tetrazol-5-yl)benzene-1,2-disulfonamide], 1.00; with `Nc1nc2c(-c3ccc(S(=O)(=O)NCC4COCCN4)c(S(N)(=O)=O)c3-c3nnn[nH]3)cccc2s1.O=C(O)C(F)(F)F` (stereo not shown) [Example 96, 3-((4-(2-aminobenzo[d]thiazol-4-yl)-2-sulfamoyl-3-(1H-tetrazol-5-yl)phenylsulfonamido)methyl)morpholin-4-ium 2,2,2-trifluoroacetate], 1.00.
Take `NS(=O)(=O)c1c(S(=O)(=O)N[C@@H]2CCNC2)ccc(-c2cccc3nonc23)c1-c1nn[nH]n1` [Example 238, (R)-4-(benzo[c][1,2,5]oxadiazol-4-yl)-N^1-(pyrrolidin-3-yl)-3-(2H-tetrazol-5-yl)benzene-1,2-disulfonamide]: under setting [1], the Efflux ratio came to 4.00.
The same measure, in the same setting: with `Nc1nc2c(-c3ccc(S(=O)(=O)N[C@@H]4CN[C@H](CO)C4)c(S(N)(=O)=O)c3-c3nnn[nH]3)cccc2s1` [Example 80, 4-(2-amino-1,3-benzothiazol-4-yl)-N1-[(3S,5S)-5-(hydroxymethyl)pyrrolidin-3-yl]-3-(1H-tetrazol-5-yl)benzene-1,2-disulfonamide] the figure was 1.00; with `Nc1nc2c(-c3ccc(S(=O)(=O)N[C@@H]4CCCNC4)c(S(N)(=O)=O)c3-c3nnn[nH]3)cccc2s1` [Example 69, 4-(2-amino-1,3-benzothiazol-4-yl)-N1-[(3R)-piperidin-3-yl]-3-(1H-tetrazol-5-yl)benzene-1,2-disulfonamide], 0.50.
For `CC(C)(N)CNS(=O)(=O)c1ccc(-c2cccc3sc(N)nc23)c(-c2nnn[nH]2)c1S(N)(=O)=O` [Example 87, N^1-(2-amino-2-methylpropyl)-4-(2-aminobenzo[d]thiazol-4-yl)-3-(1H-tetrazol-5-yl)benzene-1,2-disulfonamide], the Efflux ratio under setting [1] is 0.50.
For the compound `Cc1ccc(-c2ccc(S(=O)(=O)N[C@@H]3CCNC3)c(S(N)(=O)=O)c2-c2nn[nH]n2)c2nc(N)[nH]c12` [Example 285, (R)-4-(2-amino-7-methyl-1H-benzo[d]imidazol-4-yl)-N1-(pyrrolidin-3-yl)-3-(2H-tetrazol-5-yl)benzene-1,2-disulfonamide], the Efflux ratio under setting [1] turned out to be 1.00.
Consider `NC[C@@H]1CCN(S(=O)(=O)c2ccc(-c3cccc4sc(N)nc34)c(-c3nnn[nH]3)c2S(N)(=O)=O)C1.O=C(O)C(F)(F)F` [Example 94, (S)-(1-((4-(2-aminobenzo[d]thiazol-4-yl)-2-sulfamoyl-3-(1H-tetrazol-5-yl)phenyl)sulfonyl)pyrrolidin-3-yl)methanaminium 2,2,2-trifluoroacetate], for which the Efflux ratio under setting [1] turned out to be 1.00.
For `NS(=O)(=O)c1c(S(=O)(=O)N2CCNCC2)ccc(-c2cccc3cn[nH]c23)c1-c1nnn[nH]1` [Example 160, 3-(1H-indazol-7-yl)-6-(piperazin-1-ylsulfonyl)-2-(1H-tetrazol-5-yl)benzenesulfonamide], under setting [1], the Efflux ratio was 4.00.
Consider `CCC1(NS(=O)(=O)c2ccc(-c3cccc4sc(N)nc34)c(-c3nnn[nH]3)c2S(N)(=O)=O)CCNC1` (stereo not shown) [Example 56, 4-(2-amino-1,3-benzothiazol-4-yl)-N1-(3-ethylpyrrolidin-3-yl)-3-(1H-tetrazol-5-yl)benzene-1,2-disulfonamide], for which the Efflux ratio under setting [1] was 1.00.
`CN1CCCC(NS(=O)(=O)c2ccc(-c3cccc4sc(N)nc34)c(-c3nnn[nH]3)c2S(N)(=O)=O)C1` (stereo not shown) [Example 18, 4-(2-amino-1,3-benzothiazol-4-yl)-N1-(1-methylpiperidin-3-yl)-3-(1H-tetrazol-5-yl)benzene-1,2-disulfonamide]: the Efflux ratio under setting [1] is recorded as 1.00.
Take `Nc1nc2c(-c3ccc(S(=O)(=O)N[C@H]4CNC[C@H]4O)c(S(N)(=O)=O)c3-c3nnn[nH]3)cccc2[nH]1` [Example 168, 4-(2-amino-1H-benzo[d]imidazol-4-yl)-N^1-((3S,4R)-4-hydroxypyrrolidin-3-yl)-3-(1H-tetrazol-5-yl)benzene-1,2-disulfonamide]: the Efflux ratio under setting [1] was 0.70.
In the case of `NC(=O)[C@H](N)CNS(=O)(=O)c1ccc(-c2cccc3[nH]c(N)nc23)c(-c2nn[nH]n2)c1S(N)(=O)=O` [Example 188, (2R)-2-amino-3-(4-(2-amino-1H-benzo[d]imidazol-4-yl)-2-sulfamoyl-3-(2H-tetrazol-5-yl)phenylsulfonamido)propanamide], the Efflux ratio under setting [1] came to 0.50.
Still for that read-out and setting: the figure for `Nc1nc2c(-c3ccc(S(=O)(=O)NCC(=O)O)c(S(N)(=O)=O)c3-c3nn[nH]n3)cccc2s1` [Example 153, ((4-(2-aminobenzo[d]thiazol-4-yl)-2-sulfamoyl-3-(2H-tetrazol-5-yl)phenyl)sulfonyl)glycine] is 1.00; for `NS(=O)(=O)c1c(S(=O)(=O)N[C@@H]2CCNC2)ccc(-c2ccc3nonc3c2)c1-c1nnn[nH]1` [Example 133, (R)-4-(benzo[c][1,2,5]oxadiazol-5-yl)-N1-(pyrrolidin-3-yl)-3-(1H-tetrazol-5-yl)benzene-1,2-disulfonamide] it is 8.00.

The record behind these values is patent US10544130B2, “Metallo-beta-lactamase inhibitors” (priority 2015, dated 2020).
